Patent US20240158446A1, “CYCLIC COMPOUND HAVING SELECTIVE INHIBITORY ACTION ON KRAS OVER HRAS AND NRAS” (CHUGAI SEIYAKU KABUSHIKI KAISHA, priority 2021, published 2024)
*1 amine or outer side, *2 acyl side, *3 side chain or, on linkers, in order; H or OH if unused. Where a SMILES comes first, the peptide text is derived from it. Bridges are numbered along the chain shown (N, C = ends). [ ]: non-standard residue; d: D form. The star is where a group is joined. hPhe(3,5-F2-4-CF3) = N[C@@H](CCc1cc(F)c(C(F)(F)F)c(F)c1)C(=O)O; X49 = CCCN([C@@H](Cc1ccc(OCC=[*:3])cc1)C(=O)[*:2])[*:1]; NPrPhe(4-CF3) = CCCN[C@@H](Cc1ccc(C(F)(F)F)cc1)C(=O)O; X14 = CN([C@@H](CCCCC=[*:3])C(=O)[*:2])[*:1]; dαMeAlg = C[C@](CC=[*:3])(N[*:1])C(=O)[*:2]; X48 = CN([C@@H](CCC=[*:3])C(=O)[*:2])[*:1]; NMeGly(cPent) = CN[C@H](C(=O)O)C1CCCC1; Hyp = O=C(O)[C@@H]1C[C@@H](O)CN1; NMeD = CN[C@@H](CC(=O)O)C(=O)O; Morpholide = C1CN(*)CCO1; Ac5c = NC1(C(=O)O)CCCC1; Sar = CNCC(=O)O

Experiments:
[1] = target: GDP-bound NRAS wild-type protein (Homo sapiens, UniProt P01111); assay: Binding to NRAS by surface plasmon resonance (SPR), Single Cycle Kinetics; settings: SPR, GDP-bound NRAS wild-type protein vs GDP-bound KRAS wild-type protein
Sequence of GDP-bound NRAS wild-type protein (P01111 whole entry): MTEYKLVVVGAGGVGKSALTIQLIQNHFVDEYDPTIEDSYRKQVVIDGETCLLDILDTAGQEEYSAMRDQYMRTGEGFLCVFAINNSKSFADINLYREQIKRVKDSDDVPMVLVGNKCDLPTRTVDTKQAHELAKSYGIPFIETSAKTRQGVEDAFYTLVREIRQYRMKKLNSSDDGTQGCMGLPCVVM

[2] = target: GDP-bound HRAS wild-type protein (Homo sapiens, UniProt P01112); assay: Binding to HRAS by surface plasmon resonance (SPR), Single Cycle Kinetics; settings: SPR, GDP-bound HRAS wild-type protein vs GDP-bound KRAS wild-type protein
Sequence of GDP-bound HRAS wild-type protein (P01112 whole entry): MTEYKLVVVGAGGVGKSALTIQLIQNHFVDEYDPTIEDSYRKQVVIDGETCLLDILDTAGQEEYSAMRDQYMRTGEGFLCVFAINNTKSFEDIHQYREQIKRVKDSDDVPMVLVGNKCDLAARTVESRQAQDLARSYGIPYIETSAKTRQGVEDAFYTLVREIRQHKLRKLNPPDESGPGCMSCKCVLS

[3] = system: human lung cancer strain NCI-H441;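 note: cell proliferation inhibition after four days measured by CellTiter-Glo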

SMILES | IC50 [3] | NRAS/KRAS (ratio of KD value for NRAS to KD value for KRAS) [1] | HRAS/KRAS (ratio of KD value for HRAS to KD value for KRAS) [2]
CCO[C@@H]1C[C@H]2C(=O)NC3(CCC3)C(=O)N(C)[C@@H](C3CCCC3)C(=O)N(C)[C@H](C(=O)N3CCOCC3)CC(=O)N(C)[C@@H](Cc3cscn3)C(=O)N[C@@H]([C@@H](C)CC)C(=O)N(C)CC(=O)N(C)[C@H]3CCCCCN(C3=O)[C@@H](Cc3ccc(C(F)(F)F)cc3)C(=O)N(C)CC(=O)N[C@@H](CCc3cc(F)c(C(F)(F)F)c(F)c3)C(=O)N2C1 [PP0855] | 0.114 µM | B (a compound having 3 or more and less than 10 is denoted as B) | B (a compound having 3 or more and less than 10 is denoted as B)
CCO[C@@H]1C[C@H]2C(=O)NC3(CCC3)C(=O)N(C)[C@@H](C3CCCC3)C(=O)N(C)[C@H](C(=O)N3CCOCC3)CC(=O)N(C)[C@@H](Cc3cccc(F)c3)C(=O)N[C@@H]([C@@H](C)CC)C(=O)N(C)CC(=O)N(C)[C@H]3CCCCCN(C3=O)[C@@H](Cc3ccc(C(F)(F)F)cc3)C(=O)N(C)CC(=O)N[C@@H](CCc3cc(F)c(C(F)(F)F)c(F)c3)C(=O)N2C1 [PP0856] | 0.0667 µM | B (a compound having 3 or more and less than 10 is denoted as B) | B (a compound having 3 or more and less than 10 is denoted as B)
CCCN1C(=O)CN(C)C(=O)CN(C)C(=O)[C@H]([C@@H](C)CC)NC(=O)[C@@H]2COCCCC[C@@](C)(NC(=O)[C@@H]3C[C@@H](OCC)CN3C(=O)[C@H](CCc3cc(F)c(C(F)(F)F)c(F)c3)NC(=O)CN(C)C(=O)[C@@H]1Cc1ccc(C(F)(F)F)cc1)C(=O)N(C)[C@@H](C1CCCC1)C(=O)N(C)[C@H](C(=O)N1CCOCC1)CC(=O)N2C [PP0899] | 0.923 µM | A (a compound having 10 or more and less than 20 is denoted as A) | B (a compound having 3 or more and less than 10 is denoted as B)
CCCN1C(=O)CN(C)C(=O)CN(C)C(=O)[C@H]([C@@H](C)CC)NC(=O)[C@@H]2CCCCC=CC[C@@](C)(NC(=O)[C@@H]3C[C@@H](OCC)CN3C(=O)[C@H](CCc3cc(F)c(C(F)(F)F)c(F)c3)NC(=O)CN(C)C(=O)[C@@H]1Cc1ccc(C(F)(F)F)cc1)C(=O)N(C)[C@@H](C1CCCC1)C(=O)N(C)[C@H](C(=O)N1CCOCC1)CC(=O)N2C [PP0902] ([X14]I[Sar][Sar][NPrPhe(4-CF3)][Sar][hPhe(3,5-F2-4-CF3)][Hyp](Et)[dαMeAlg][NMeGly(cPent)][NMeD]-Morpholide; staple 1-9; lactam N-11) | 0.0726 µM | A (a compound having 10 or more and less than 20 is denoted as A) | B (a compound having 3 or more and less than 10 is denoted as B)
CCO[C@@H]1C[C@H]2C(=O)NC3(CCC3)C(=O)N(C)[C@@H](C3CCCC3)C(=O)N(C)[C@H](C(=O)N(C)C)CC(=O)N(C)[C@@H](CC)C(=O)N[C@@H]([C@@H](C)CC)C(=O)N(C)CC(=O)N(C)[C@H]3CCCCCN(C3=O)[C@@H](Cc3ccc(F)cc3Cl)C(=O)N(C)CC(=O)N[C@@H](CCc3cc(F)c(C(F)(F)F)c(F)c3)C(=O)N2C1 [PP0908] | 0.0385 µM | B (a compound having 3 or more and less than 10 is denoted as B) | B (a compound having 3 or more and less than 10 is denoted as B)
CCO[C@@H]1C[C@H]2C(=O)NC3(CCC3)C(=O)N(C)[C@@H](C3CCCC3)C(=O)N(C)[C@H](C(=O)N(C)C)CC(=O)N(C)[C@@H](CC)C(=O)N[C@@H]([C@@H](C)CC)C(=O)N(C)CC(=O)N(C)[C@H]3CCCCCN(C3=O)[C@@H](Cc3ccc(F)c(C)c3)C(=O)N(C)CC(=O)N[C@@H](CCc3cc(F)c(C(F)(F)F)c(F)c3)C(=O)N2C1 [PP0912] | 0.0405 µM | B (a compound having 3 or more and less than 10 is denoted as B) | B (a compound having 3 or more and less than 10 is denoted as B)
CCO[C@@H]1C[C@H]2C(=O)NC3(CCC3)C(=O)N(C)[C@@H](C3CCCC3)C(=O)N(C)[C@H](C(=O)N(C)C)CC(=O)N(C)[C@@H](CC)C(=O)N[C@@H]([C@@H](C)CC)C(=O)N(C)CC(=O)N(C)[C@H]3CCCCCN(C3=O)[C@@H](Cc3nccs3)C(=O)N(C)CC(=O)N[C@@H](CCc3cc(F)c(C(F)(F)F)c(F)c3)C(=O)N2C1 [PP0913] | 0.206 µM | B (a compound having 3 or more and less than 10 is denoted as B) | B (a compound having 3 or more and less than 10 is denoted as B)

Molecules with a lower IC50 [3], results first:

IC50 [3] | SMILES | NRAS/KRAS (ratio of KD value for NRAS to KD value for KRAS) [1] | HRAS/KRAS (ratio of KD value for HRAS to KD value for KRAS) [2]
0.0256 µM | CCO[C@@H]1C[C@H]2C(=O)NC3(CCC3)C(=O)N(C)[C@@H](C3CCCC3)C(=O)N(C)[C@H](C(=O)N(C)C)CC(=O)N(C)[C@@H](CC)C(=O)N[C@@H]([C@@H](C)CC)C(=O)N(C)CC(=O)N(C)[C@H]3CCCCN(C3=O)[C@@H](Cc3ccc(C(F)(F)F)cc3)C(=O)N(C)CC(=O)N[C@@H](CCc3ccc4ccsc4c3)C(=O)N2C1 [PP0888] | C (A compound having a KD ratio of 0.1 or more and less than 3 is denoted as C) | B (a compound having 3 or more and less than 10 is denoted as B)
0.0248 µM | CCO[C@@H]1C[C@H]2C(=O)NC3(CCC3)C(=O)N(C)[C@@H](C3CCCC3)C(=O)N(C)[C@H](C(=O)N(C)C)CC(=O)N(C)[C@@H](CC)C(=O)N[C@@H]([C@@H](C)CC)C(=O)N(C)CC(=O)N(C)[C@H]3CCCCCN(C3=O)[C@@H](Cc3ccc(F)c(F)c3)C(=O)N(C)CC(=O)N[C@@H](CCc3cc(F)c(C(F)(F)F)c(F)c3)C(=O)N2C1 [PP0907] | B (a compound having 3 or more and less than 10 is denoted as B) | B (a compound having 3 or more and less than 10 is denoted as B)
0.0243 µM | CCO[C@@H]1C[C@H]2C(=O)NC3(CCC3)C(=O)N(C)[C@@H](C3CCCC3)C(=O)N(C)[C@H](C(=O)N3CCOCC3)CC(=O)N(C)[C@@H](COCC(F)(F)F)C(=O)N[C@@H]([C@@H](C)CC)C(=O)N(C)CC(=O)N(C)[C@H]3CCCCCN(C3=O)[C@@H](Cc3ccc(C(F)(F)F)cc3)C(=O)N(C)CC(=O)N[C@@H](CCc3cc(F)c(C(F)(F)F)c(F)c3)C(=O)N2C1 [PP0853] | B (a compound having 3 or more and less than 10 is denoted as B) | B (a compound having 3 or more and less than 10 is denoted as B)
0.0049 µM | CCCN1C(=O)CN(C)C(=O)CN(C)C(=O)[C@H]([C@@H](C)CC)NC(=O)[C@@H]2CCC=CCOc3ccc(cc3)C[C@H]1C(=O)N(C)CC(=O)N[C@@H](CCc1cc(F)c(C(F)(F)F)c(F)c1)C(=O)N1C[C@H](OCC)C[C@H]1C(=O)NC1(CCCC1)C(=O)N(C)[C@@H](C1CCCC1)C(=O)N(C)[C@H](C(=O)N(C)C)CC(=O)N2C [PP0900] ([X48]I[Sar][Sar][X49][Sar][hPhe(3,5-F2-4-CF3)][Hyp](Et)[Ac5c][NMeGly(cPent)][NMeD]-NMe2; staple 1-5; lactam N-11) | C (A compound having a KD ratio of 0.1 or more and less than 3 is denoted as C) | C (A compound having a KD ratio of 0.1 or more and less than 3 is denoted as C)
